ChEMBL document CHEMBL1122922, “Inhibition of muscarinic receptor binding and acetylcholine-induced contraction of guinea pig ileum by analogues of 5'-(isobutylthio)adenosine” (J Med Chem, 1985)

Molecular target: Muscarinic acetylcholine receptor
Assay: Ability to inhibit binding of [3H]QNB to Muscarinic acetylcholine receptor in cultured N4TG1 neuroblastoma cells at 1e-8 to 1e-3 M

Row | I 50 [µM] | Structure (SMILES)
1 | 210 | CC(C)CSCC1CC(n2cnc3c(N)nccc32)C(O)C1O (centres undefined)
2 | 52 | CC(C)CSC[C@H]1OC(n2cnc3c(N)ccnc32)[C@H](O)[C@@H]1O (some centres undefined)
3 | 39 | CC(C)CSC[C@H]1OC(n2cnc3c(N)nccc32)[C@H](O)[C@@H]1O (some centres undefined)
4 | 1500 | CC(C)CSC[C@H]1OC(n2cnc3c(N)ncnc32)[C@H](O)[C@@H]1O (some centres undefined)
